Legend:
[1] = tested on: murine ASMC (WT, CD36 null, CD47 null); assay: Intracellular cGMP in murine ASMC; type: cell-based, mouse
In short: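 Aortic smooth muscle cells from wild-type C57Bl/6, CD36-null or CD47-null mice, passage 1–4, plated overnight in full growth medium. Weaned to SM-GM + 0.1% BSA before treatment with NO donor and other agents. Intracellular cGMP measured by enzyme immunoassay.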

[2] = tested on: human platelets; assay: Thrombin-induced human platelet aggregation; type: cell-based; conditions: for NO delay of thrombin-induced platelet aggregation: DEA/NO 10 μM
In short: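 Washed human platelets in Tyrode's buffer pH 7.4 (2×10^5/μl) are stirred at 1200 rpm and 37 °C, and optical aggregation is followed for 5 min; under static conditions, A400 is tracked for 5 min instead. TSP1 agents or 1 μM peptide C6d are pre-incubated for 15 min before thrombin ± DEA/NO (10 μM).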

[3] = tested on: human platelets; assay: Human platelet adhesion assay; type: cell-based; conditions: for stimulation of adhesion by TSP1: fibrinogen, in the presence of NO
Procedure: Bacteriological Petri dishes (35×10 mm, Becton Dickinson Labware) were pre-coated with collagen (3 μg/ml) or fibrinogen (15 μg/mL) overnight. Following aspiration of non-adherent matrix, dishes were blocked with 1% BSA. Fresh platelets were washed and suspended in Tyrode's buffer and allowed to adhere for 30 minutes. Plates were washed with PBS, fixed with 0.5% glutaraldehyde and stained with 0.02% toluidine blue. Adherent platelets were counted microscopically. In some experiments platelets were pre-incubated with the Rap1 geranylgeranyltransferase inhibitor GGTI-298 (10 μM) for 30 minutes prior to initiating adhesion.

[4] = tested on: VASP; assay: Phospho-Ser239 VASP Western blotting in platelets; type: cell-based, human; conditions: 8Br-cGMP 100 μM, TSP1 2.2 nM
Procedure: Washed human platelets (resuspended in Tyrode's buffer to 3×10^8 platelets/mL to a final volume of 0.5 mL) were incubated at 37° C. for 30 minutes before treatment. TSP1 was added 15 minutes prior to treatment. Immediately following treatment, platelets were pelleted at 13,000×g at 4° C. for 15 seconds and resuspended in 1 mL of a lysis buffer containing 10 mM Tris-HCl (pH 7.5), 150 mM NaCl, 1 mM EDTA, 1 mM Na3VO4, 40 mM NaF, 1 μg/mL aprotinin, 1 μg/mL leupeptin, 1 mM phenylmethysulfonylfluoride and 1% […]. This suspension was placed at 4° C. with gentle agitation for 5 minutes before centrifugation at 13000×g for 5 minutes at 4° C. 5 μg lysates were electrophoresed on 4-12% Bis-Tris NuPAGE gels, transferred to Immobilon PVDF membranes and probed with a rabbit polyclonal antiserum against Serine 239-phosphorylated VASP (Santa Cruz Biotechnology, Santa Cruz, Calif.).

[5] = tested on: murine ASMC (WT, CD36 null, CD47 null); assay: Murine ASMC adhesion on type I collagen; type: cell-based, mouse; conditions: CD47 null MASMC
Procedure: Murine ASMC were obtained from aortic segments harvested sterilely from C57B1/6 CD47 null or CD36 null mice as described (Ray et al., Methods Cell Sci 23:185-188, 2001) and cultured in SM-GM (Cambrex)+20% FCS. In the case of CD36 null cells, culture flasks were pre-coated with 1% gelatin prior to cell plating. Wild type C57B1/6 ASMC cultures were prepared as previously described (Isenberg et al., Matrix Biol 24:110-123, 2005). Cell culture purity was determined by immunohistochemistry staining for α-smooth muscle actin. Cells were used within passage 1 to 4 to minimize overgrowth of other cell types.
Cell adhesion was carried out in 96-well culture plates. After pre-coating wells with type I collagen (3 μg/ml in DPBS) harvested cells were plated at a density of 1×10^4 cells/well in medium plus 0.1% BSA and treatment agents and incubated in 5% CO2 for 1 h. Wells were washed with PBS and cells fixed with 1% glutaraldehyde for 10 min., washed and stained with 1% crystal violet for 20 min. Excess stain was rinsed away, adherent cells treated with 10% acetic acid, and plates read at 570 nm.

TSP1: thrombospondin-1 prepared from human platelets
NO-stimulated cGMP ([1]; CD36 null MASMC): completely inhibited
NO-stimulated cGMP ([1]; CD47 null MASMC): did not significantly inhibit
NO-stimulated cGMP ([1]; WT MASMC): inhibited
platelet aggregation at high shear in the presence of NO ([2]; GGTI-298 preincubation): maintained its ability to accelerate platelet aggregation
lowest concentration tested, sufficient to accelerate platelet aggregation in the presence of NO ([2]; high shear): 0.022 nM
NO delay of thrombin-induced platelet aggregation ([2]; high shear, thrombin 0.2 U/ml): reversed in a dose-dependent manner
NO delay of thrombin-induced platelet aggregation ([2]; static / low shear conditions): completely abrogated
basal adhesion of platelets on type I collagen and fibrinogen ([3]; TSP1 2.2 nM): moderately increased basal adhesion
decrease in platelet adhesion in response to exogenous NO ([3]; fibrinogen or collagen, DEA/NO 10 μM): lost
stimulation of adhesion by TSP1 [3]: 55±9%
stimulation of adhesion by TSP1 ([3]; following Rap1 blockade with GGTI-298): 25±8%
VASP phosphorylation at Ser239 [4]: inhibited
NO-stimulated adhesion ([5]; 22 nM): only moderately inhibited
NO-stimulated adhesion ([5]; concentrations up to 2.2 nM): had no effect

From patent publication US8865672B2, “Prevention of tissue ischemia and related methods” (The United States of America, as represented by the …, priority 2006, dated 2014)
